Measured values: patent US20230150951A1, “2,5- OR 2,6-DISUBSTITUTED HYDROQUINONE DERIVATIVES WITH AT LEAST ONE CARBOXY, SULFO OR AMIDO GROUP USEFUL AS MEDICAMENTS” (OM PHARMA SA, priority 2020, published 2023)

Key:
[1] = test system: DBA/2 mouse strain with STZ induction of diabetes; assay: STZ-induced diabetic retinopathy and nephropathy model in DBA/2 mice; format: in vivo; details: one and two weeks, FIG. 9
Method: Therapeutic efficacy of the compounds according to the present invention was assessed using diabetic mouse model using the DBA/2 mouse strain with STZ induction of diabetes and follow diabetic retinopathy including kidney damage. Five weeks after induction of diabetes via low dose STZ injection for 5 consecutive days, the urinary albumin:Cr ratio is […] compared to 36.9 for age-matched controls.
For treatment of diabetic nephropathy, DBA/2 mice were induced with STZ (low dose for 5 consecutive days).
Treatment was performed for four weeks (IV dosing) with weekly assessment of blood glucose and urine albumin/creatinine levels. At the end of the treatment period animals, the following samples were taken: • Blood for measurement of glucose and Blood Urea Nitrogen (BUN) • Blood for measurement of serum creatinine • Urine for final albumin/creatinine ratio. • Kidney was resected and FFPE: Picro-Sirius Red, Masson's Trichrome and H&E staining was carried out to identify areas of fibrosis, along with evidence of Mesangial sclerosis, Arteriolar hyalinosis, Glomerular Basal Membrane (GBM) thickening
To assess compound effect on diabetic retinopathy, animals had weekly images taken via Fundus Camera. Immediately prior to sacrifice, animals were injected with FITC-dextran via tail vein. During sampling, the eyes were sampled and fixed in formalin. Retinal Flatmounts were prepared and examined fluorescently looking at compound effects on vascularity and leakiness of vessels (indicted by high background staining).

[2] = biological target: T1, COX2 (cycloxygenase-2) (Homo sapiens, UniProt P35354); assay: Cyclooxygenase enzyme inhibition; format: biochemical
T1 sequence (P35354 18-604): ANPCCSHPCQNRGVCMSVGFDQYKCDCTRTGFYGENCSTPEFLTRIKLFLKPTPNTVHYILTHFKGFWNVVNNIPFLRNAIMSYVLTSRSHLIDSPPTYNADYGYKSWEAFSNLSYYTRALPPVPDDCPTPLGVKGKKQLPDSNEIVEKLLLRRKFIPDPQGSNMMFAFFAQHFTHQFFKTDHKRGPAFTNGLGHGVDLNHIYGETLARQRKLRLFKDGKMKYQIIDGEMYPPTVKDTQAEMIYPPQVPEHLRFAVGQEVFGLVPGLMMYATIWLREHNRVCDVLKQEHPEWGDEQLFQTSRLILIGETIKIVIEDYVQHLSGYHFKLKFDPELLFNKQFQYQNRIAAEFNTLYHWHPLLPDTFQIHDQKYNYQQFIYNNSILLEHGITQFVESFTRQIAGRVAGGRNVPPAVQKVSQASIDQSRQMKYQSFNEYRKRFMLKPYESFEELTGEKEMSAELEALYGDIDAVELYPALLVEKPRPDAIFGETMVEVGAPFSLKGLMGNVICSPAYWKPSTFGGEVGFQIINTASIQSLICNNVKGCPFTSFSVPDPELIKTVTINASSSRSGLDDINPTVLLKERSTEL

[3] = test system: ARPE-19 cells; assay: ROS and cytokine/VEGF mRNA production by ARPE-19 monolayer cells in non-diabetic and diabetic milieu; format: cell-based, human; details: ARPE19 monolayer; for ROS: ROS % to 25 mM D-Glucose; for IL-1β R.Q. mRNA / IL-6 R.Q. mRNA / IL-18 R.Q. mRNA / TNFα R.Q. mRNA / VEGF R.Q. mRNA: relative change vs 25 mM D-Gluc
Method: Outer Blood Retinal Barrier conditions: human retinal pigment epithelial cells (RPE) cultures ARPE-19, a spontaneously immortalised human RPE cell line were obtained from American Type Culture Collection (Manassas, Va., USA). ARPE-19 cells and they were cultured in euglycaemic conditions (D-glucose (D-Glc), 5.5 mmol/L) and hyperglycaemic conditions (D-glucose, 25 mmol/L) for 18 days at 37° C. under 5% (vol./vol.) CO2 in medium (DMEM/F12) supplemented with 10% (vol./vol.) FBS (Hyclone; Thermo Fisher Scientific, UT, USA) and 1% (vol./vol.) penicillin/streptomycin (Hyclone; Thermo Fisher Scientific). ARPE-19 cells from passage 20 were used and the medium changed every 3-4 days. For permeability studies, ARPE-19 cells were seeded at 400,000 cells/ml (80,000 RPE cells/well) in 0.33 cm^2 HTS-Transwells (Costar; Corning, N.Y., USA). For real-time PCR, western blot analysis and immunofluorescence cells are seeded at 20,000 cells/ml.
Experimental conditions and treatments: apart from the euglycemic condition, eighteen different conditions were tested in cells cultured under 25 mmol/L D-glucose:
• Proinflammatory cytokines were evaluated in ARPE-19 cells by RT-PCR and mRNA for IL-6, TNF-α, IL-1β, IL-18, VEGF, IL-10, FGF were measured using the double delta CT method 2-ΔΔCT with Cts values for the gene of interest and the endogenous human B-actin to obtain ΔCT; mRNA values were expressed as relative change with respect to the condition 25 mM D-Gluc. (ref: Livak K J, Analysis of Relative Gene Expression Data Using Real-Time Quantitative PCR and the 2-ΔΔCT Method, Methods, 2001, 25(4), 402-408, doi 10.1006/meth.2001.1262) • ROS production was evaluated using Cell Biolabs' OxiSelect™ Intracellular ROS Assay (Green Fluorescence) (Bionova, Madrid, Spain). The assay employs the cell-permeable fluorogenic probe 2′, 7′-Dichlorodihydrofluorescin diacetate (DCFH-DA), oxidized to highly fluorescent 2′, 7′-Dichlorodihydrofluorescein (DCF) by cellular ROS. • Endothelin-1, PDGF and VCAM-1 expression was analyzed in HREC monolayers by immunohistochemical analysis and by RT-PCR. • TJ expression (ZO) is analyzed in ARPE-19 and HREC monolayers by immunohistochemical analysis.

[4] = 25 mM D-Gluc, compound 25 μg/mL
[5] = 25 mM D-Gluc, compound 50 μg/mL
[6] = diabetic milieu (25 mM D-Gluc + VEGF, TNF-α, IL-1β), compound 25 μg/mL
[7] = diabetic milieu (25 mM D-Gluc + VEGF, TNF-α, IL-1β), compound 50 μg/mL

O=C(O)c1cc(O)c(C(=O)Nc2ccccc2C(=O)O)cc1O [Ia-001a, 4-(2-carboxyphenylaminocarbonyl)-2,5-dihydroxybenzoic acid]
Blood glucose level [1]: significantly reduced

O=C(O)c1cc(O)cc(CS(=O)(=O)Cc2cc(O)cc(C(=O)O)c2O)c1O [IVc-059a, 3-((2,5-Dihydroxy-3-carboxyphenyl)methylsulfonylmethyl)-2,5-dihydroxybenzoic acid]
Blood glucose level [1]: significantly reduced
Inhibition of COX2 [2]: partially inhibition
ROS [3, 4]: 62 ± 9%
IL-1β R.Q. mRNA [3, 4]: 0.20 ± 0.05 R.Q.
IL-6 R.Q. mRNA [3, 4]: 0.28 ± 0.11 R.Q.
IL-18 R.Q. mRNA [3, 4]: 0.07 ± 0.01 R.Q.
TNFα R.Q. mRNA [3, 4]: 0.27 ± 0.08 R.Q.
VEGF R.Q. mRNA [3, 4]: 0.11 ± 0.01 R.Q.
ROS [3, 5]: 116 ± 12%
IL-1β R.Q. mRNA [3, 5]: 0.21 ± 0.13 R.Q.
IL-6 R.Q. mRNA [3, 5]: 0.28 ± 0.11 R.Q.
IL-18 R.Q. mRNA [3, 5]: 0.04 ± 0.01 R.Q.
TNFα R.Q. mRNA [3, 5]: 0.27 ± 0.10 R.Q.
VEGF R.Q. mRNA [3, 5]: 0.06 ± 0.03 R.Q.
ROS [3, 6]: 61 ± 40 %
IL-1β R.Q. mRNA [3, 6]: 20.81 ± 5.11 R.Q.
IL-6 R.Q. mRNA [3, 6]: 5.84 ± 1.13 R.Q.
IL-18 R.Q. mRNA [3, 6]: 0.03 ± 0.01 R.Q.
TNFα R.Q. mRNA [3, 6]: 5.39 ± 1.01 R.Q.
VEGF R.Q. mRNA [3, 6]: 0.04 ± 0.00 R.Q.
ROS [3, 7]: 159 ± 32%
IL-1β R.Q. mRNA [3, 7]: 27.76 ± 5.18 R.Q.
IL-6 R.Q. mRNA [3, 7]: 9.78 ± 2.30 R.Q.
IL-18 R.Q. mRNA [3, 7]: 0.01 ± 0.00 R.Q.
TNFα R.Q. mRNA [3, 7]: 3.61 ± 1.82 R.Q.
VEGF R.Q. mRNA [3, 7]: 0.20 ± 0.03 R.Q.

O=C(O)c1cc(O)c(CN(Cc2cc(O)c(C(=O)O)cc2O)Cc2cc(O)c(C(=O)O)cc2O)cc1O [IIIc-061a, Tris(4-carboxy-2,5-dihydroxyphenylmethyl)amine]
Blood glucose level [1]: significantly reduced
Inhibition of COX2 [2]: partially inhibition

O=C(O)c1cc(NC(=O)c2cc(O)c(C(=O)Nc3ccc(O)c(C(=O)O)c3)cc2O)ccc1O [Ic-007a, 5-(4-(3-carboxy-4-hydroxyphenylaminocarbonyl)-2,5-dihydroxybenzamido)-2-hydroxy benzoic acid]
Inhibition of COX2 [2]: partially inhibition
ROS [3, 4]: 32 ± 15%
IL-1β R.Q. mRNA [3, 4]: 0.12 ± 0.01 R.Q.
IL-6 R.Q. mRNA [3, 4]: 0.52 ± 0.49 R.Q.
IL-18 R.Q. mRNA [3, 4]: 0.45 ± 0.18 R.Q.
TNFα R.Q. mRNA [3, 4]: 0.27 ± 0.07 R.Q.
VEGF R.Q. mRNA [3, 4]: 0.09 ± 0.02 R.Q.
ROS [3, 5]: 26 ± 4.6%
IL-1β R.Q. mRNA [3, 5]: 0.15 ± 0.03 R.Q.
IL-6 R.Q. mRNA [3, 5]: 0.20 ± 0.07 R.Q.
IL-18 R.Q. mRNA [3, 5]: 0.07 ± 0.01 R.Q.
TNFα R.Q. mRNA [3, 5]: 0.59 ± 0.33 R.Q.
VEGF R.Q. mRNA [3, 5]: 0.12 ± 0.03 R.Q.
ROS [3, 6]: 33 ± 4.8 %
IL-1β R.Q. mRNA [3, 6]: 12.21 ± 1.46 R.Q.
IL-6 R.Q. mRNA [3, 6]: 0.52 ± 0.49 R.Q.
IL-18 R.Q. mRNA [3, 6]: 0.02 ± 0.00 R.Q.
TNFα R.Q. mRNA [3, 6]: 11.26 ± 0.96 R.Q.
VEGF R.Q. mRNA [3, 6]: 0.06 ± 0.02 R.Q.
ROS [3, 7]: 27 ± 13 %
IL-1β R.Q. mRNA [3, 7]: 10.66 ± 3.01 R.Q.
IL-6 R.Q. mRNA [3, 7]: 3.28 ± 1.46 R.Q.
IL-18 R.Q. mRNA [3, 7]: 0.02 ± 0.00 R.Q.
TNFα R.Q. mRNA [3, 7]: 5.22 ± 3.96 R.Q.
VEGF R.Q. mRNA [3, 7]: 0.17 ± 0.05 R.Q.

O=C(O)c1cc(NC(=O)c2cc(O)cc(C(=O)Nc3ccc(O)c(C(=O)O)c3)c2O)ccc1O [IIc-007a, 5-(3-(3-carboxy-4-hydroxyphenylaminocarbonyl)-2,5-dihydroxybenzamido)-2-hydroxy benzoic acid]
Inhibition of COX2 [2]: partially inhibition
ROS [3, 4]: 55 ± 6.4%
IL-1β R.Q. mRNA [3, 4]: 0.74 ± 0.26 R.Q.
IL-6 R.Q. mRNA [3, 4]: 0.73 ± 0.00 R.Q.
IL-18 R.Q. mRNA [3, 4]: 0.75 ± 0.09 R.Q.
TNFα R.Q. mRNA [3, 4]: 0.57 ± 0.18 R.Q.
VEGF R.Q. mRNA [3, 4]: 0.06 ± 0.01 R.Q.
ROS [3, 5]: 72 ± 11%
IL-1β R.Q. mRNA [3, 5]: 0.24 ± 0.11 R.Q.
IL-6 R.Q. mRNA [3, 5]: 0.34 ± 0.08 R.Q.
IL-18 R.Q. mRNA [3, 5]: 0.04 ± 0.00 R.Q.
TNFα R.Q. mRNA [3, 5]: 0.45 ± 0.30 R.Q.
VEGF R.Q. mRNA [3, 5]: 0.12 ± 0.03 R.Q.
ROS [3, 6]: 47 ± 7.6 %
IL-1β R.Q. mRNA [3, 6]: 41.03 ± 17.57 R.Q.
IL-6 R.Q. mRNA [3, 6]: 10.83 ± 6.90 R.Q.
IL-18 R.Q. mRNA [3, 6]: 0.07 ± 0.01 R.Q.
TNFα R.Q. mRNA [3, 6]: 6.31 ± 0.06 R.Q.
VEGF R.Q. mRNA [3, 6]: 0.11 ± 0.01 R.Q.
ROS [3, 7]: 74 ± 38 %
IL-1β R.Q. mRNA [3, 7]: 11.39 ± 6.52 R.Q.
IL-6 R.Q. mRNA [3, 7]: 1.50 ± 1.19 R.Q.
IL-18 R.Q. mRNA [3, 7]: 0.03 ± 0.00 R.Q.
TNFα R.Q. mRNA [3, 7]: 4.24 ± 0.77 R.Q.
VEGF R.Q. mRNA [3, 7]: 0.13 ± 0.02 R.Q.
